The text below walks through data of patent publication US20260193246A1, “METHOD OF MAKING LANIFIBRANOR” (INVENTIVA, priority 2023, published 2026).

Assay type in all cases: physicochemical
Series [1] is described as follows: Dynamic vapor sorption (DVS). The following applies: range 0% RH-95% RH. From the text: Crystalline form beta of lanifibranor is also characterized by its dynamic vapor sorption (DVS). […] In some embodiments, the DVS isotherm plot of crystalline form beta of lanifibranor is substantially in accordance with FIG. 4.
Series [2] is described as follows: Angle of repose (powder flow, Electrolab EFT-01). The settings on record: 50 g of powder through an orifice of 25 mm; rounded average of three experiments. On the procedure:
Powder flow and the angle of repose were determined using an Electrolab EFT-01 apparatus. In a first step, powder flow is measured through various orifices (10, 15 and 25 mm). In a second step, the angle of repose is measured by the height of the cone formed by a sample of 50 g of powder passing through an orifice of 25 mm. The result obtained in the rounded average of three experiments.

Series [3] is described as follows: Compressibility index and Hausner ratio from bulk and tapped density (Electrolab ETD-1020). On the procedure: The compressibility index and Hausner ratio were determined using an Electrolab ETD-1020 apparatus using measured values of bulk density (ρbulk) and tapped density (ρtapped) as follows: [formula] [formula]
The next series is described as follows: Thermogravimetry (TGA). The settings on record: temperature range 25-200° C. On the procedure:
Crystalline form beta of lanifibranor is also characterized by its thermogravimetry (TGA) curve. […] Above 250° C., the weight loss observed likely corresponds to degradation. In some embodiments, said TGA curve is substantially in accordance with FIG. 3.

For `O=C(O)CCCc1cc2cc(Cl)ccc2n1S(=O)(=O)c1ccc2ncsc2c1` [crystalline form beta of lanifibranor, 1-(6-benzothiazolylsulfonyl)-5-chloro-1H-indole-2-butanoic acid], the “maximum uptake (weight variation, DVS)” value in series [1] is “+0.1%”. In series [2], this compound had an angle of repose of 35 °. Also, in series [3], the Hausner ratio is 1.26 and the compressibility index stood at 20.64. Besides, the “weight loss (TGA)” value in “Thermogravimetry (TGA)” was “does not highlight any significant weight loss”.
